From ChEMBL document CHEMBL5696441 (Nat Chem Biol, 2011)

Columns and labels:
[1] = biological target: Ankyrin repeat and protein kinase domain-containing protein 1 (Homo sapiens) (UniProt Q8NFD2); test: Inhibition of ANKK1 (unknown origin) assessed as remaining activity at 1 uM by Kinome scan method relative to control
[2] = biological target: T1, Serine/threonine-protein kinase BRSK1 (Homo sapiens) (UniProt Q8TDC3); test: Inhibition of BRSK1 (unknown origin) assessed as remaining activity at 1 uM by Kinome scan method relative to control
T1 sequence (whole entry): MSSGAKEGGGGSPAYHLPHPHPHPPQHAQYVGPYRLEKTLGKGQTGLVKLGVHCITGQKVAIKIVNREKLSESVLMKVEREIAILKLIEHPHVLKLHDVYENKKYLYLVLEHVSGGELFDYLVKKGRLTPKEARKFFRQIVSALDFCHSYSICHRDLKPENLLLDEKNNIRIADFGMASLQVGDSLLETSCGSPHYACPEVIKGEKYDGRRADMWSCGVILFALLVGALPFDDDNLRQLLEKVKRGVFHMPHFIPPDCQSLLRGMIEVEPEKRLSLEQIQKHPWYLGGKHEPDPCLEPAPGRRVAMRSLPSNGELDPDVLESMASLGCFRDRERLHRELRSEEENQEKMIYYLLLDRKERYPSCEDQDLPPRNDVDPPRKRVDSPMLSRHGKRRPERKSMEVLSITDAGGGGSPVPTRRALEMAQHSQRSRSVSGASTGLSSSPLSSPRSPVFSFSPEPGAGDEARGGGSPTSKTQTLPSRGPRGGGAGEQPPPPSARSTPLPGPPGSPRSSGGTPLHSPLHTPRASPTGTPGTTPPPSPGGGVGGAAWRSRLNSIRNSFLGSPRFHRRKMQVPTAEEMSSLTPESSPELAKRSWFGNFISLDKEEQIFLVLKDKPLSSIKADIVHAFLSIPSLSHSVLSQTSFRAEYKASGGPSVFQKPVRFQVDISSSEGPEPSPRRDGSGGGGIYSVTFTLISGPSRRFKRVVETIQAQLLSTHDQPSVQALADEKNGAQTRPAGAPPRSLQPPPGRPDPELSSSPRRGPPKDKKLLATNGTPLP

[3] = biological target: T2, Serine/threonine-protein kinase 17A (Homo sapiens) (UniProt Q9UEE5); test: Inhibition of DRAK1 (unknown origin) assessed as remaining activity at 1 uM by Kinome scan method relative to control
T2 sequence (whole entry): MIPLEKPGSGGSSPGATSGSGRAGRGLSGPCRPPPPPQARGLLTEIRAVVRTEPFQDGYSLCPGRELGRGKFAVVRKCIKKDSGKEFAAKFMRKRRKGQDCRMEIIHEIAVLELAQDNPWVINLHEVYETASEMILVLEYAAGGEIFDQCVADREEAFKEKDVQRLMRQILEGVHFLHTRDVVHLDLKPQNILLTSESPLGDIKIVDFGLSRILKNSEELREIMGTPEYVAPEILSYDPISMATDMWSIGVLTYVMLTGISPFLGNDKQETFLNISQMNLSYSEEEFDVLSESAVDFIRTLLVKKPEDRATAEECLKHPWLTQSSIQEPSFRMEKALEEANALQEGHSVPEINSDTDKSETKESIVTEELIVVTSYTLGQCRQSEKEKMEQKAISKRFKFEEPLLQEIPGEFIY

[4] = biological target: T3, Ephrin type-A receptor 3 (Homo sapiens) (UniProt P29320); test: Inhibition of EPHA3 (unknown origin) assessed as remaining activity at 1 uM by Kinome scan method relative to control
T3 sequence (whole entry): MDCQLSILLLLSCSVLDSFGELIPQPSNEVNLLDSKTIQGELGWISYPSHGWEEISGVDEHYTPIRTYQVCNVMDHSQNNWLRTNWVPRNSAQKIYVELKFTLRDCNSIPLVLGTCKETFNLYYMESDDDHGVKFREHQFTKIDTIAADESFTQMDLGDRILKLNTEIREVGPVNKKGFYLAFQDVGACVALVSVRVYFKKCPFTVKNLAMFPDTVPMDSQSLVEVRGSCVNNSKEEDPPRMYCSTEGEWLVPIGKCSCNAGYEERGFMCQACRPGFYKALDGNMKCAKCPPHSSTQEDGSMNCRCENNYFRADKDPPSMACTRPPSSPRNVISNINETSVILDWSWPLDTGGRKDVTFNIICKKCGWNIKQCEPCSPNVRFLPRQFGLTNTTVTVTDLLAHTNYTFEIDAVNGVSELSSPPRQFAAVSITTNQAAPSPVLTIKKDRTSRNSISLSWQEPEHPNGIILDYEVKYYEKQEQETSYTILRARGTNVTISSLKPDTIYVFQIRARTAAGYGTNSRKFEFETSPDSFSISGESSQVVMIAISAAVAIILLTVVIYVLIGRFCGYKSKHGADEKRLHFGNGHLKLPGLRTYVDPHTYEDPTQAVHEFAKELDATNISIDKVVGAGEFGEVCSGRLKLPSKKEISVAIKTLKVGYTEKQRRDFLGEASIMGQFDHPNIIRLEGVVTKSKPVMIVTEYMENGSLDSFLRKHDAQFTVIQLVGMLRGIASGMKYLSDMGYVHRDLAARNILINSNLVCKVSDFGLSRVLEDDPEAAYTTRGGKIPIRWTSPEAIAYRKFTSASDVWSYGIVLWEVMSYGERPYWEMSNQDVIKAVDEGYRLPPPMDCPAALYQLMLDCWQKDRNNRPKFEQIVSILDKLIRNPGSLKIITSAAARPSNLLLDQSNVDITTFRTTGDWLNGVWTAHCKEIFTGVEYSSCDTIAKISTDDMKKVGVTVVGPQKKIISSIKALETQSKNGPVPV

[5] = biological target: Mitogen-activated protein kinase kinase kinase kinase 1 (Homo sapiens) (UniProt Q92918); test: Inhibition of HPK1 (unknown origin) assessed as remaining activity at 1 uM by Kinome scan method relative to control
[6] = biological target: Serine/threonine-protein kinase ICK (Homo sapiens) (UniProt Q9UPZ9); test: Inhibition of ICK (unknown origin) assessed as remaining activity at 1 uM by Kinome scan method relative to control
[7] = biological target: Serine/threonine-protein kinase MARK2 (Homo sapiens) (UniProt Q7KZI7); test: Inhibition of MARK2 (unknown origin) assessed as remaining activity at 1 uM by Kinome scan method relative to control
[8] = biological target: Serine/threonine-protein kinase 26 (Homo sapiens) (UniProt Q9P289); test: Inhibition of MST4 (unknown origin) assessed as remaining activity at 1 uM by Kinome scan method relative to control
[9] = biological target: Non-receptor tyrosine-protein kinase TNK1 (Homo sapiens) (UniProt Q13470); test: Inhibition of TNK1 (unknown origin) assessed as remaining activity at 1 uM by Kinome scan method relative to control
Chain of Non-receptor tyrosine-protein kinase TNK1 (Homo sapiens) (Q13470 whole entry): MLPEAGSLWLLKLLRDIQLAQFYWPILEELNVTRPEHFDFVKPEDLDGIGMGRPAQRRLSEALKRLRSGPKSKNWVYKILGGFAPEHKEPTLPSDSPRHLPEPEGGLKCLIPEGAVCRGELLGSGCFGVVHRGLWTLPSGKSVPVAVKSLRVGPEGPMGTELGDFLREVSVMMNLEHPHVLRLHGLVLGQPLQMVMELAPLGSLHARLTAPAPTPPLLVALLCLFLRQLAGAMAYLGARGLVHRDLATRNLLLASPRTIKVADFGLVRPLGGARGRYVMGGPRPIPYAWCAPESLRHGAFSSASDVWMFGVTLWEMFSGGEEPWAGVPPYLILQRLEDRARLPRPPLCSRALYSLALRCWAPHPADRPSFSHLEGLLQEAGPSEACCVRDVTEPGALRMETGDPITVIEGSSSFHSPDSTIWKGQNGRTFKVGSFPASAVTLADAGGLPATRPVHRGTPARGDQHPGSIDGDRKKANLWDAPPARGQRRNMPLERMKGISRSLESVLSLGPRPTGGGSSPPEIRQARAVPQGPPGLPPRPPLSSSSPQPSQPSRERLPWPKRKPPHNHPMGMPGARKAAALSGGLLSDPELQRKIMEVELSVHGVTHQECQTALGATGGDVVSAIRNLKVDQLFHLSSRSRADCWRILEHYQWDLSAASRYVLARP

Chain of Serine/threonine-protein kinase MARK2 (Homo sapiens) (Q7KZI7 whole entry): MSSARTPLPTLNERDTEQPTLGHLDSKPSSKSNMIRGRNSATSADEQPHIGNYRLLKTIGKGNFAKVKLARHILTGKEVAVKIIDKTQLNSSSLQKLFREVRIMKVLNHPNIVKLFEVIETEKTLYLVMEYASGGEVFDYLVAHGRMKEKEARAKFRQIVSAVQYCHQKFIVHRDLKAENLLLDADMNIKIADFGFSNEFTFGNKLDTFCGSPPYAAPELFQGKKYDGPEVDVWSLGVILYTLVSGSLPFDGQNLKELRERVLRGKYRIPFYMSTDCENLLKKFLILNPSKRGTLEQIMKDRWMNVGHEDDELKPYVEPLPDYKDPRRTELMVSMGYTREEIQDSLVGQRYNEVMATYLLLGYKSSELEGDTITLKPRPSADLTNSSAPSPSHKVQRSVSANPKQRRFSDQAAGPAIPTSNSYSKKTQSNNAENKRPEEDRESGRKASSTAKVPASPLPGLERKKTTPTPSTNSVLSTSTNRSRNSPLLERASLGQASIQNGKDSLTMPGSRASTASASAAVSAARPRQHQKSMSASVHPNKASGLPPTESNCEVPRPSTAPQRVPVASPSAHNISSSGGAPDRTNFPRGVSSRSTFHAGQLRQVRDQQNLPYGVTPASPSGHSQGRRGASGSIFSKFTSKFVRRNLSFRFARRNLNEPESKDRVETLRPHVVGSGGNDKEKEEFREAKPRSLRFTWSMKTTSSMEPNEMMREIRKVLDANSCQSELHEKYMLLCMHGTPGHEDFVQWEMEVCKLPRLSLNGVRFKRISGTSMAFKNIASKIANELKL
Chain of Serine/threonine-protein kinase ICK (Homo sapiens) (Q9UPZ9 whole entry): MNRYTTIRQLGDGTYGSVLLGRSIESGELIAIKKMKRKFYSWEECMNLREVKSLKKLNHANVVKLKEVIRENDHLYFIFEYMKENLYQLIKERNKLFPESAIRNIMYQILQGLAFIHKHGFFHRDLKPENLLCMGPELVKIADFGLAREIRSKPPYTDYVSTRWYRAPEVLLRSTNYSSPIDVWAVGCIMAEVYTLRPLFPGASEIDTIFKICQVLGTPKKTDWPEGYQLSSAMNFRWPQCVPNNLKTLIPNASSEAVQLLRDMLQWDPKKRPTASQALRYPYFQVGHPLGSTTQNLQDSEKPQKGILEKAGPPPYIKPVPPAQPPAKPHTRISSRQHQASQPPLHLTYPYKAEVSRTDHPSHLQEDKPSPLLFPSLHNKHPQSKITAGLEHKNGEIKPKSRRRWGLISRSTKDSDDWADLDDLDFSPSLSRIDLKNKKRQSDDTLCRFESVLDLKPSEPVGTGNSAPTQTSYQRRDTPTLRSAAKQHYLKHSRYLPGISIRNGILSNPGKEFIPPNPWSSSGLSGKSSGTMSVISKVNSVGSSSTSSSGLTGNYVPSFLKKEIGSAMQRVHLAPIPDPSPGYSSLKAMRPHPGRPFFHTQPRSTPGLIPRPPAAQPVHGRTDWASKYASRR
Chain of Mitogen-activated protein kinase kinase kinase kinase 1 (Homo sapiens) (Q92918 whole entry, looked up): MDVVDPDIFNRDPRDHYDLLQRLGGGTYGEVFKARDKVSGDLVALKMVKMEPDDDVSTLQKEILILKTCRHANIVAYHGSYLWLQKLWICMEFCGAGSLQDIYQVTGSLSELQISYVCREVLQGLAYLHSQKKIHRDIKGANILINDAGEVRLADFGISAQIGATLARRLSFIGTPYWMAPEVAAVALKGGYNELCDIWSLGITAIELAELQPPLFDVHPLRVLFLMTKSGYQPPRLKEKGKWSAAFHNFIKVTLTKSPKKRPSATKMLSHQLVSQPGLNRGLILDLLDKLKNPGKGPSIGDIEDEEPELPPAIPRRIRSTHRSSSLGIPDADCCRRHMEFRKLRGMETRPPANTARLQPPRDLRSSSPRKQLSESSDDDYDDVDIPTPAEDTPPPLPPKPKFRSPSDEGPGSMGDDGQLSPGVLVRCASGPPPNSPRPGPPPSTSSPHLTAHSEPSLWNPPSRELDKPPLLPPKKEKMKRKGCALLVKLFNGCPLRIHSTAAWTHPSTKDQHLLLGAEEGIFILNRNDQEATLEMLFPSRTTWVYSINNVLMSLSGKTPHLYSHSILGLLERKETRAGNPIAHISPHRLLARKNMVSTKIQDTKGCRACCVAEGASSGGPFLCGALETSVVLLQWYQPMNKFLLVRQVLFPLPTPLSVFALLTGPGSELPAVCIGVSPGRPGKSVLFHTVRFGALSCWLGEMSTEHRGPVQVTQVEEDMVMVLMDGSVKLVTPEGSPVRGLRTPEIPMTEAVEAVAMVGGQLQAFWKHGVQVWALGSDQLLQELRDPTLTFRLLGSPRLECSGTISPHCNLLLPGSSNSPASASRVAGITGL
Chain of Ankyrin repeat and protein kinase domain-containing protein 1 (Homo sapiens) (Q8NFD2 whole entry, the tested form may be a part): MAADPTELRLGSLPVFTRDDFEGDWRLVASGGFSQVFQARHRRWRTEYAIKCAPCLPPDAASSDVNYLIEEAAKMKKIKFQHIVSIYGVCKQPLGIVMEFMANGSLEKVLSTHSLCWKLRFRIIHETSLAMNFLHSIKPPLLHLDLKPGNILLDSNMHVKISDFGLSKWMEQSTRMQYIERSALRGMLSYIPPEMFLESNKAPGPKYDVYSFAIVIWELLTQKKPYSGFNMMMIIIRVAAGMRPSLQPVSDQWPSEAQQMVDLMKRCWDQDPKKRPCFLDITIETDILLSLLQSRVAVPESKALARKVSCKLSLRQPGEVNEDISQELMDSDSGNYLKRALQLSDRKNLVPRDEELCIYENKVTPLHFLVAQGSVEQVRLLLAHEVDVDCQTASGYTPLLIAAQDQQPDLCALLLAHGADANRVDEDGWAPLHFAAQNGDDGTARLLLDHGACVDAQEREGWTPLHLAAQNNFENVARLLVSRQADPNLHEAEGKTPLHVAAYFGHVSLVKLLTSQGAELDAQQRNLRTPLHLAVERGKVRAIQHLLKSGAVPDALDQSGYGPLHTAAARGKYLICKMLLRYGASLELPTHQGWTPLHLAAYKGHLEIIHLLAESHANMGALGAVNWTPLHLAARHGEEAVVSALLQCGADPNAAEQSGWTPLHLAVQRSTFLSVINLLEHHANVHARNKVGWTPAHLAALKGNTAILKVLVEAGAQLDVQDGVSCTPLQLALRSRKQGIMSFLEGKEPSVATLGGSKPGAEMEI
Chain of Serine/threonine-protein kinase 26 (Homo sapiens) (Q9P289 2-416 limits assumed): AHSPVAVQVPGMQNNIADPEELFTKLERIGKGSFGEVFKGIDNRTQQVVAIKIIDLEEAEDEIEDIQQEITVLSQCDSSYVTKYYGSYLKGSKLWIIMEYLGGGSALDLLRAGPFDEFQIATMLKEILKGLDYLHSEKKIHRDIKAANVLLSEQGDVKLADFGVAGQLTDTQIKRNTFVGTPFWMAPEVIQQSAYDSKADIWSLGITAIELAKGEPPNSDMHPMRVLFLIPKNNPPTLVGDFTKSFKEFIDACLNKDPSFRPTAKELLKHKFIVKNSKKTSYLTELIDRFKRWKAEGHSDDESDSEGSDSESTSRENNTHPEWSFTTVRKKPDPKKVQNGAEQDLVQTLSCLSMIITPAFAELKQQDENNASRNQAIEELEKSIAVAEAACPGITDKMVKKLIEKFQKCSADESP

| SMILES | Activity [1] [%] | Activity [2] [%] | Activity [3] [%] | Activity [4] [%] | Activity [5] [%] | Activity [6] [%] | Activity [7] [%] | Activity [8] [%] | Activity [9] [%] |
| --- | --- | --- | --- | --- | --- | --- | --- | --- | --- |
| Nc1ccccc1Nc1ccc2c(c1)CCc1ccccc1C2=O | 96 | 98 | 92 | 83 | 96 | 83 | 72 | 96 | 90 |
| O=C1c2ccc(Nc3ccc(F)cc3F)cc2CCc2ccc(OC[C@H](O)CO)cc21 [Skepinone-L] | 99 | 100 | 100 | 94 | 85 | 99 | 97 | 100 | 79 |
